# Reference: PMC6361841, “Repurposing of Drugs as Novel Influenza Inhibitors From Clinical Gene Expression Infection Signatures” (Frontiers in Immunology, 2019)
# pEC50: −log10 of the molar value. Read-outs that look alike come from different tables or passages of the source.
# Legend:
# [1] = system: influenza A/Quebec/144147/09 (H1N1)pdm09 virus; format: in vivo, C57BL/6N mice
# [2] = system: MucilAir® human airway epithelium; format: cell-based
# [3] = system: A/Lyon/969/09 (H1N1)pdm09 virus; test: microbe, parasite or virus in culture; format: cell-based, influenza A(H1N1)pdm09 virus; settings: Influenza A virus, H1N1, 48 h; pre-treatment/treatment in vitro; A549; […]; read-out: EC50
# A/Texas/126/2016 (H3N2) = test: Antiviral efficacy in A549 cells, H3N2 strain; format: cell-based, influenza virus
# [4] = system: MucilAir® human airway epithelia (HAE); test: LDH cytotoxicity in HAE; settings: oseltamivir 1 μM, diltiazem 90 μM, combinations
# A(H1N1)pdm09 virus = format: cell-based, influenza virus
# B/Massachusetts/2/2106 = test: Antiviral efficacy in A549 cells, B strain; format: cell-based, influenza virus
# [5] = system: influenza A/Quebec/144147/09 (H1N1)pdm09 virus; format: in vivo, C57BL/6N mice; remark: listed apart in the source
# [6] = system: influenza A/Lyon/969/09 (H1N1)pdm09 virus; format: cell-based
# [7] = […], oseltamivir 10 mg/kg/day, diltiazem 90 mg/kg/day
# [8] = 24 h p.i., oseltamivir 0.1 µM, diltiazem 9 µM or both
# [9] = 48 h p.i., oseltamivir 0.1 µM, diltiazem 9 µM or both
# [10] = 72 h p.i., oseltamivir 0.1 µM, diltiazem 9 µM or both
# [11] = 96 h p.i., oseltamivir 0.1 µM, diltiazem 9 µM or both
# [12] = oseltamivir 1 μM, diltiazem 90 μM
smiles,measurement,setting,value
COc1ccc([C@@H]2Sc3ccccc3N(CCN(C)C)C(=O)[C@@H]2OC(C)=O)cc1 [Diltiazem],Hazard ratio (HR) for the saline group compared to treatment group (CI95),"[1]; […], diltiazem 45 mg/kg",7.62 (1.49–38.96)
same,Mice rescued from death,"[1]; […], half-dose diltiazem 45 mg/kg",30%
same,Survival,"[1]; […], mg/kg/day: oseltamivir 10, monensin 10, diltiazem 90, etilefrine 3",completely prevented mortality
same,Hazard ratio (HR) for the saline group compared to treatment group (CI95),[1]; [7],2.85 (0.56–14.47)
same,Mice rescued from death,[1]; [7],20%
same,Weight loss,"[1]; […], oseltamivir 10, monensin 10, diltiazem 90 mg/kg/day",reduced weight loss
same,Mean weight loss,"[1]; mouse, in vivo",significant improvement
same,Δ TEER (CI95),[2]; [8],35.10 (10.96 – 59.23) Ohm/cm^2
same,Δ TEER (CI95),"[2]; 24 h p.i., oseltamivir 1 µM, diltiazem 90 µM or both",86.13 (3.72 – 168.5) Ohm/cm^2
same,Δ TEER (CI95),[2]; [9],-48.31 (-180.1 – 83.47) Ohm/cm^2
same,Δ TEER (CI95),"[2]; 48 h p.i., oseltamivir 1 µM, diltiazem 90 µM or both",120.1 (-85.77 – 326.00) Ohm/cm^2
same,Δ TEER (CI95),[2]; [10],-218.0 (255.6 – -180.4) Ohm/cm^2
same,Δ TEER (CI95),"[2]; 72 h p.i., oseltamivir 1 µM, diltiazem 90 µM or both",-115.5 (-308.5 – 77.52) Ohm/cm^2
same,Δ TEER (CI95),[2]; [11],-220.5 (-267.4 – -173.5) Ohm/cm^2
same,TEER during the time-course of infection,"[2]; oseltamivir 1 μM, diltiazem 90 μM or both",partially buffered the TEER decrease
same,pEC50,[3],9.08
same,Relative Viral production,A/Texas/126/2016 (H3N2); dose CMAP,7.9 % of mock-treated
same,Viral titer,A/Texas/126/2016 (H3N2); dose CMAP,4.92 log TCID50/ml
same,Relative Viral production,A/Texas/126/2016 (H3N2); dose CMAP/10,12.75 % of mock-treated
same,Viral titer,A/Texas/126/2016 (H3N2); dose CMAP/10,5.13 log TCID50/ml
same,Treatment-induced toxicity (LDH release),[4],absence of treatment-induced toxicity
same,Effect of virus pre-incubation on final viral titers vs PBS-incubated controls,A(H1N1)pdm09 virus; pre-incubation before infection,did not affect final viral titers
same,"Viral titer, Dilution #2","A(H1N1)pdm09 virus; virus 10^5 TCID50/mL pre-incubated 1 h, diltiazem 9 µM, etilefrine 18 µM, oseltamivir 1 µM",4.63 log TCID50/ml
same,"Viral titer, Dilution #1","A(H1N1)pdm09 virus; virus 10^6 TCID50/mL pre-incubated 1 h, diltiazem 9 µM, etilefrine 18 µM, oseltamivir 1 µM",5.63 log TCID50/ml
same,Mean relative Viral production,"A(H1N1)pdm09 virus; virus pre-incubated 1 h, relative to PBS control",156.9 % of mock-treated
same,Relative Viral production,B/Massachusetts/2/2106; dose CMAP,4.7 % of mock-treated
same,Viral titer,B/Massachusetts/2/2106; dose CMAP,3.97 log TCID50/ml
same,Relative Viral production,B/Massachusetts/2/2106; dose CMAP/10,10.0 % of mock-treated
same,Viral titer,B/Massachusetts/2/2106; dose CMAP/10,4.3 log TCID50/ml
same,Clinical benefit in terms of survival vs saline (placebo) group,"[5]; […], mg/kg/day: oseltamivir 10, monensin 10, diltiazem 90, etilefrine 3, lanatoside C 100, prednisolone 5, flucytosine 240, felbinac 5, timolol 50",significantly improved survival
same,Weight loss vs saline (placebo) group,"[5]; […], oseltamivir 10, diltiazem 90, etilefrine 3 mg/kg/day",significantly improved
same,Reduction in lung viral titers (LVTs) on day 5 p.i.,"[5]; mouse, in vivo",at least 1 log
same,Apical viral titer log TCID50/ml (CI95),[6]; [8],6.47 (5.03 – 7.90) log TCID50/ml
same,Apical viral titer log TCID50/ml (CI95),[6]; [9],8.91 (8.67 – 9.16) log TCID50/ml
same,Apical viral titer log TCID50/ml (CI95),[6]; [10],8.21 (7.28 – 9.14) log TCID50/ml
same,Apical viral titer log TCID50/ml (CI95),[6]; [11],7.32 (6.43 – 8.22) log TCID50/ml
same,Apical viral titer log TCID50/ml (CI95),"[6]; 96 h p.i., oseltamivir 1 µM, diltiazem 90 µM or both",7.37 (5.97 – 8.76) log TCID50/ml
same,Effect on viral replication vs untreated control,"[6]; oseltamivir 0.1 μM, diltiazem 9 μM (CMAP) or both, from 5 h p.i., once daily 5 days",no significant advantage over the untreated control
same,Reduction in apical viral titers at 48 h p.i. compared to the untreated control,[6]; [12],> 3 log
same,Virus on the basolateral medium,[6]; [12],No virus was detected
same,Delay of the peak of viral production,"[6]; oseltamivir 1 μM, diltiazem 90 μM (10-fold CMAP)",24 h
same,Reduction in apical peak viral titers compared to the untreated control,"[6]; oseltamivir 1 μM, diltiazem 90 μM or both, 48 h p.i. untreated vs. 72 h p.i. treated",> 2 log
